For this data set, the system named is CCRIS mutagenicity, Ames/micronucleus/aberration tests. Briefly: CCRIS mutagenicity studies.
[1] abbreviates: Test System: AMES SALMONELLA TYPHIMURIUM, Strain/Indicator: TA98, Metabolic Activation: NONE, Method: PREINCUBATION
Setting [2] is: Test System: AMES SALMONELLA TYPHIMURIUM, Strain/Indicator: TA100, Metabolic Activation: NONE, Method: PREINCUBATION
Setting [3] is: Test System: AMES SALMONELLA TYPHIMURIUM, Strain/Indicator: TA100, Metabolic Activation: NONE, Method: STANDARD PLATE.
Where [4] appears, read: Test System: AMES SALMONELLA TYPHIMURIUM, Strain/Indicator: TA100, Metabolic Activation: RAT, LIVER, S-9, AROCLOR 1254, Method: PREINCUBATION

This note sets out measurements from PubChem BioAssay AID1259407 (Chemical Carcinogenesis Research Information System (CCRIS), 2018).

Structures are written as SMILES. Calls of active or inactive are those of the source. How the calls were made is not given here.

With `N.N.O=C([O-])C1(C(=O)[O-])CCC1.[Pt+4]`, the mutagenic call was “inactive; negative” under setting [1]; “inactive; negative” (Test System: AMES SALMONELLA TYPHIMURIUM, Strain/Indicator: TA98, Metabolic Activation: NONE, Method: STANDARD PLATE); “inactive; negative” (Test System: AMES SALMONELLA TYPHIMURIUM, Strain/Indicator: TA98, Metabolic Activation: RAT, LIVER, S-9, AROCLOR 1254, Method: STANDARD PLATE); “inactive; negative” (Test System: AMES SALMONELLA TYPHIMURIUM, Strain/Indicator: TA98, Metabolic Activation: RAT, LIVER, S-9, PHENOBARBITAL AND 5,6-BENZOFLAVONE, Method: PREINCUBATION); “inactive; negative” under setting [2]; “inactive; negative” under setting [3]. Further, the mutagenic call (Test System: AMES SALMONELLA TYPHIMURIUM, Strain/Indicator: TA100, Metabolic Activation: RAT, LIVER, S-9, AROCLOR 1254, Method: STANDARD PLATE) was “inactive; negative”; the mutagenic call (Test System: AMES SALMONELLA TYPHIMURIUM, Strain/Indicator: TA100, Metabolic Activation: RAT, LIVER, S-9, PHENOBARBITAL AND 5,6-BENZOFLAVONE, Method: PREINCUBATION) was “inactive; negative”; the mutagenic call (Test System: AMES SALMONELLA TYPHIMURIUM, Strain/Indicator: TA102, Metabolic Activation: NONE, Method: STANDARD PLATE) is “active; positive”; the mutagenic call (Test System: AMES SALMONELLA TYPHIMURIUM, Strain/Indicator: TA102, Metabolic Activation: RAT, LIVER, S-9, AROCLOR 1254, Method: STANDARD PLATE) is “active; positive”; the mutagenic call (Test System: AMES SALMONELLA TYPHIMURIUM, Strain/Indicator: TA1535, Metabolic Activation: NONE, Method: PREINCUBATION) is “inactive; negative”; the mutagenic call (Test System: AMES SALMONELLA TYPHIMURIUM, Strain/Indicator: TA1535, Metabolic Activation: RAT, LIVER, S-9, PHENOBARBITAL AND 5,6-BENZOFLAVONE, Method: PREINCUBATION) was “inactive; negative”. Also, the mutagenic call (Test System: AMES SALMONELLA TYPHIMURIUM, Strain/Indicator: TA1537, Metabolic Activation: NONE, Method: PREINCUBATION) is “inactive; negative”; the mutagenic call (Test System: AMES SALMONELLA TYPHIMURIUM, Strain/Indicator: TA1537, Metabolic Activation: RAT, LIVER, S-9, PHENOBARBITAL AND 5,6-BENZOFLAVONE, Method: PREINCUBATION) was “inactive; negative”; the mutagenic call (Test System: CHINESE HAMSTER, Strain/Indicator: V-79/6-THIOGUANINE (HGPRT), Metabolic Activation: NONE, Method: STANDARD PLATE) was “active; positive”; the mutagenic call (Test System: E.COLI, Strain/Indicator: WP2 UVRA, Metabolic Activation: NONE, Method: PREINCUBATION) is “inactive; negative”; the mutagenic call (Test System: E.COLI, Strain/Indicator: WP2 UVRA, Metabolic Activation: RAT, LIVER, S-9, PHENOBARBITAL AND 5,6-BENZOFLAVONE, Method: PREINCUBATION) is “inactive; negative”.

On to `ClC(Cl)(Cl)c1ccccc1`, for which the mutagenic call is “active; positive” (Test System: AMES SALMONELLA TYPHIMURIUM, Strain/Indicator: TA98, Metabolic Activation: HAMSTER, LIVER, S-9, AROCLOR 1254 (30%), Method: PREINCUBATION); “inactive; negative” under setting [1]; “active; positive” (Test System: AMES SALMONELLA TYPHIMURIUM, Strain/Indicator: TA98, Metabolic Activation: RAT, LIVER, S-9, AROCLOR 1254 (30%), Method: PREINCUBATION); “active; positive” (Test System: AMES SALMONELLA TYPHIMURIUM, Strain/Indicator: TA98, Metabolic Activation: RAT, LIVER, S-9, AROCLOR 1254, Method: PREINCUBATION); “active; positive” (Test System: AMES SALMONELLA TYPHIMURIUM, Strain/Indicator: TA100, Metabolic Activation: HAMSTER, LIVER, S-9, AROCLOR 1254 (30%), Method: PREINCUBATION); “active; positive” under setting [2]. The mutagenic call (Test System: AMES SALMONELLA TYPHIMURIUM, Strain/Indicator: TA100, Metabolic Activation: RAT, LIVER, S-9, AROCLOR 1254 (30%), Method: PREINCUBATION) is “active; positive”; the mutagenic call under setting [4] was “active; positive”; the mutagenic call (Test System: AMES SALMONELLA TYPHIMURIUM, Strain/Indicator: TA1535, Metabolic Activation: RAT, LIVER, S-9, AROCLOR 1254, Method: PREINCUBATION) is “active; positive”.

Take `CC(C)CCOS(C)(=O)=O`: the mutagenic call is “active; positive” (End Point: IN VITRO MICRONUCLEUS, Test System: MOUSE LYMPHOMA L5178Y CELLS, Metabolic Activation: NONE); “inactive; negative” (End Point: IN VITRO MICRONUCLEUS, Test System: MOUSE LYMPHOMA L5178Y CELLS, Metabolic Activation: RAT, LIVER, S-9); “active; positive” under setting [3]; “active; positive” (Test System: AMES SALMONELLA TYPHIMURIUM, Strain/Indicator: TA100, Metabolic Activation: RAT, LIVER, S-9, Method: STANDARD PLATE).

Take `Oc1cccc2c3ccccc3c3cc4ccccc4cc3c12`: the mutagenic call under setting [4] was “inactive; negative”.
